Laboratory results as given in patent publication US11724992B2 (Novartis AG, priority 2017, dated 2023).

tested on: IL-1β production in PMA-differentiated THP-1 cells; assay: IL-1β production in PMA-differentiated THP-1 cells stimulated with gramicidin (hTHP-1 assay, 2% fetal bovine serum; Procedures 1-3); format: cell-based, human; details: hTHP-1 assay containing 2% fetal bovine serum; class symbols; read-out: hTHP-1 IC50 (Average IC50 of compounds in hTHP-1 assay)
Procedure: The following protocol is suitable for testing the activity of the compounds disclosed herein.
Procedure 1: IL-1β Production in PMA-Differentiated THP-1 Cells Stimulated with Gramicidin
THP-1 cells were purchased from the American Type Culture Collection and sub-cultured according to instructions from the supplier. Cells were cultured in complete RPMI 1640 (containing 10% heat inactivated FBS, penicillin (100 units/ml) and streptomycin (100 μg/ml)), and maintained in log phase prior to experimental setup. Prior to the experiment, compounds were dissolved in dimethyl sulfoxide (DMSO) to generate a 30 mM stock. The compound stock was first pre-diluted in DMSO to 3, 0.34, 0.042 and 0.0083 mM intermediate concentrations and subsequently spotted using Echo550 liquid handler into an empty 384-well assay plate to achieve desired final concentration (e.g. 100, 33, 11, 3.7, 1.2, 0.41, 0.14, 0.046, 0.015, 0.0051, 0.0017 μM). DMSO was backfilled in the plate to achieve a final DMSO assay concentration of 0.37%. The plate was then sealed and stored at room temperature until required.
THP-1 cells were treated with PMA (Phorbol 12-myristate 13-acetate) (20 ng/ml) for 16-18 hours. On the day of the experiment the media was removed and adherent cells were detached with trypsin for 5 minutes. Cells were then harvested, washed with complete RPMI 1640, spun down, and resuspended in RPMI 1640 (containing 2% heat inactivated FBS, penicillin (100 units/ml) and streptomycin (100 μg/ml). The cells were plated in the 384-well assay plate containing the spotted compounds at a density of 50,000 cells/well (final assay volume 50 μl). Cells were incubated with compounds for 1 hour and then stimulated with gramicidin (5 μM) (Enzo) for 2 hours. Plates were then centrifuged at 340 g for 5 min. Cell free supernatant (40 μL) was collected using a 96-channel PlateMaster (Gilson) and the production of IL-1β was evaluated by HTRF (cisbio). The plates were incubated for 18 h at 4° C. and read using the preset HTRF program (donor emission at 620 nm, acceptor emission at 668 nm) of the SpectraMax i3x spectrophotometer (Molecular Devices, software SoftMax 6). A vehicle only control and a dose titration of CRID3 (100-0.0017 μM) were run concurrently with each experiment.
Procedure 2: IL-1β Production in PMA-Differentiated THP-1 Cells Stimulated with Gramicidin
THP-1 cells were purchased from the American Type Culture Collection and sub-cultured according to instructions from the supplier. Prior to experiments, cells were cultured in complete RPMI 1640 (containing 10% heat inactivated FBS, penicillin (100 units/ml) and streptomycin (100 μg/ml)), and maintained in log phase prior to experimental setup. Prior to the experiment THP-1 were treated with PMA (Phorbol 12-myristate 13-acetate) (20 ng/ml) for 16-18 hours. Compounds were dissolved in dimethyl sulfoxide (DMSO) to generate a 30 mM stock. On the day of the experiment the media was removed and adherent cells were detached with trypsin for 5 minutes. Cells were then harvested, washed with complete RPMI 1640, spun down, resuspended in RPMI 1640 (containing 2% heat inactivated FBS, penicillin (100 units/ml) and streptomycin (100 μg/ml). The cells were plated in a 384-well plate at a density of 50,000 cells/well (final assay volume 50 μl). Compounds were first dissolved in assay medium to obtain a 5× top concentration of 500 μM. 10 step dilutions (1:3) were then undertaken in assay medium containing 1.67% DMSO. 5× compound solutions were added to the culture medium to achieve desired final concentration (e.g. 100, 33, 11, 3.7, 1.2, 0.41, 0.14, 0.046, 0.015, 0.0051, […]). Final DMSO concentration was at 0.37%. Cells were incubated with compounds for 1 hour and then stimulated with gramicidin (5 μM) (Enzo) for 2 hours. Plates were then centrifuged at 340 g for 5 min. Cell free supernatant (40 μL) was collected using a 96-channel PlateMaster (Gilson) and the production of IL-1β was evaluated by HTRF (cisbio). […]

First: CC(C)c1cc(F)cc(C(C)C)c1NC(=O)N=S(N)(=O)c1cccc(C(C)(C)O)c1 (single isomer, unassigned) [Example 105]
Second: CC(C)c1cc(F)cc(C(C)C)c1NC(=O)N=S(N)(=O)c1cc(C(C)(C)O)cs1 (single isomer, unassigned) [Example 140]
The IC50 of the first is higher: 0.2 to 1 µM for the first, 0.008 to 0.04 µM for the second.

First: CC(C)c1cc(F)cc(C(C)C)c1NC(=O)N=S(N)(=O)c1cccc(C(C)(C)O)c1 (single isomer, unassigned) [Example 106]
Second: CC(C)c1cc(F)cc(C(C)C)c1NC(=O)N=S(N)(=O)c1cc(C(C)(C)O)cs1 (single isomer, unassigned) [Example 141]
The IC50 of the first is higher: 5 to 30 µM for the first, 1 to 5 µM for the second.

First: CC(C)c1c(F)c(C#N)cc(C2CC2)c1NC(=O)N=S(N)(=O)c1cnc(C(C)(C)O)s1 (single isomer, unassigned) [Example 107]
Second: CC(C)c1cc(OC(F)F)cc(C(C)C)c1NC(=O)N=S(N)(=O)c1cnc(C(C)(C)O)s1 (single isomer, unassigned) [Example 111]
The IC50 of the first is higher: 5 to 30 µM for the first, 0.04 to 0.2 µM for the second. The second is the more potent here.

Compared with `CC(C)c1c(F)c(C#N)cc(C2CC2)c1NC(=O)N=S(N)(=O)c1cnc(C(C)(C)O)s1` (single isomer, unassigned) [Example 108], `CC(C)c1cc(OC(F)F)cc(C(C)C)c1NC(=O)N=S(N)(=O)c1cnc(C(C)(C)O)s1` (single isomer, unassigned) [Example 112] is higher in IC50: 0.04 to 0.2 µM for the first, 5 to 30 µM for the second.

First: CC(C)(O)c1csc(S(N)(=O)=NC(=O)Nc2c3c(c(C#N)c4c2CCC4)CCC3)c1 (single isomer, unassigned) [Example 113]
Second: CC(C)(O)c1ncc(S(N)(=O)=NC(=O)Nc2c3c(c(C#N)c4c2CCC4)CCC3)s1 (single isomer, unassigned) [Example 146]
The IC50 of the first is lower: 0.008 to 0.04 µM for the first, 1 to 5 µM for the second. The first is the more potent here.

Compared with `CC(C)(O)c1csc(S(N)(=O)=NC(=O)Nc2c3c(c(C#N)c4c2CCC4)CCC3)c1` (single isomer, unassigned) [Example 114], `CC(C)(O)c1ncc(S(N)(=O)=NC(=O)Nc2c3c(c(C#N)c4c2CCC4)CCC3)s1` (single isomer, unassigned) [Example 147] is lower in IC50: 1 to 5 µM for the first, 0.2 to 1 µM for the second. The second is the more potent here.

First: CC(C)(O)c1ncc(S(N)(=O)=NC(=O)Nc2c3c(c(OC(F)F)c4c2CCC4)CCC3)s1 (single isomer, unassigned) [Example 115]
Second: CC(C)(O)c1cc(F)c(S(N)(=O)=NC(=O)Nc2c3c(c(F)c4c2CCC4)CCC3)s1 (single isomer, unassigned) [Example 121]
The IC50 of the first is higher: 1 to 5 µM for the first, 0.008 to 0.04 µM for the second.

First: CC(C)(O)c1ncc(S(N)(=O)=NC(=O)Nc2c3c(c(OC(F)F)c4c2CCC4)CCC3)s1 (single isomer, unassigned) [Example 116]
Second: CC(C)(O)c1cc(F)c(S(N)(=O)=NC(=O)Nc2c3c(c(F)c4c2CCC4)CCC3)s1 (single isomer, unassigned) [Example 122]
The IC50 of the first is lower: 0.04 to 0.2 µM for the first, 0.2 to 1 µM for the second. The first is the more potent here.

`CN(C)Cc1ccc(S(N)(=O)=NC(=O)Nc2c3c(cc4c2CCC4)CCC3)cc1` (single isomer, unassigned) [Example 117] and `CN(C)Cc1ccc(S(N)(=O)=NC(=O)Nc2c3c(cc4c2CCC4)CCC3)c(F)c1` (single isomer, unassigned) [Example 154] fall in the same range of IC50: 0.04 to 0.2 µM for the first, 0.04 to 0.2 µM for the second.

`CN(C)Cc1ccc(S(N)(=O)=NC(=O)Nc2c3c(cc4c2CCC4)CCC3)cc1` (single isomer, unassigned) [Example 118] and `CN(C)Cc1ccc(S(N)(=O)=NC(=O)Nc2c3c(cc4c2CCC4)CCC3)c(F)c1` (single isomer, unassigned) [Example 155] fall in the same range of IC50: 1 to 5 µM for the first, 1 to 5 µM for the second.

First: Cc1oc(S(N)(=O)=NC(=O)Nc2c3c(cc4c2CCC4C)CCC3)cc1C(C)(C)O (single isomer, unassigned) [Example 123]
Second: Cc1oc(S(N)(=O)=NC(=O)Nc2c3c(cc4c2C(C)CC4)CCC3)cc1C(C)(C)O (single isomer, unassigned) [Example 126]
The IC50 of the first is lower: 0.04 to 0.2 µM for the first, 1 to 5 µM for the second. The first is the more potent here.

Compared with `Cc1oc(S(N)(=O)=NC(=O)Nc2c3c(cc4c2CCC4C)CCC3)cc1C(C)(C)O` (single isomer, unassigned) [Example 124], `Cc1oc(S(N)(=O)=NC(=O)Nc2c3c(c(F)c4c2CCC4)CCC3)cc1C(C)(C)O` (single isomer, unassigned) [Example 148] is lower in IC50: 1 to 5 µM for the first, less than 0.008 µM for the second.

First: Cc1oc(S(N)(=O)=NC(=O)Nc2c3c(cc4c2CCC4C)CCC3)cc1C(C)(C)O (single isomer, unassigned) [Example 125]
Second: Cc1oc(S(N)(=O)=NC(=O)Nc2c3c(c(F)c4c2CCC4)CCC3)cc1C(C)(C)O (single isomer, unassigned) [Example 149]
The IC50 of the first is lower: 0.04 to 0.2 µM for the first, 0.2 to 1 µM for the second. The first is the more potent here.

Compared with `CC(C)(O)c1cccc(S(N)(=O)=NC(=O)Nc2c3c(c(F)c4c2CCC4)CCC3)c1` (single isomer, unassigned) [Example 128], `CC(C)(O)c1ccc(S(N)(=O)=NC(=O)Nc2c3c(c(F)c4c2CCC4)CCC3)c(F)c1` (single isomer, unassigned) [Example 152] is lower in IC50: 0.2 to 1 µM for the first, 0.04 to 0.2 µM for the second.

Compared with `CC(C)(O)c1cccc(S(N)(=O)=NC(=O)Nc2c3c(c(F)c4c2CCC4)CCC3)c1` (single isomer, unassigned) [Example 129], `CC(C)(O)c1ccc(S(N)(=O)=NC(=O)Nc2c3c(c(F)c4c2CCC4)CCC3)c(F)c1` (single isomer, unassigned) [Example 153] is lower in IC50: 5 to 30 µM for the first, 1 to 5 µM for the second.

First: CC(C)c1cc(C#N)cc(C(C)C)c1NC(=O)N=S(N)(=O)c1ncc(C(C)(C)O)s1 (single isomer, unassigned) [Example 130]
Second: CC(C)c1cc(F)cc(C(C)C)c1NC(=O)N=S(N)(=O)c1ncc(C(C)(C)O)s1 (single isomer, unassigned) [Example 138]
The IC50 of the first is lower: 0.04 to 0.2 µM for the first, 1 to 5 µM for the second. The first is the more potent here.

Compared with `CC(C)c1cc(C#N)cc(C(C)C)c1NC(=O)N=S(N)(=O)c1ncc(C(C)(C)O)s1` (single isomer, unassigned) [Example 131], `CC(C)c1cc(F)cc(C(C)C)c1NC(=O)N=S(N)(=O)c1ncc(C(C)(C)O)s1` (single isomer, unassigned) [Example 139] is lower in IC50: 1 to 5 µM for the first, 0.04 to 0.2 µM for the second.

First: CC(C)c1cc(OC(F)F)cc(C(C)C)c1NC(=O)N=S(N)(=O)c1ncc(C(C)(C)O)s1 (single isomer, unassigned) [Example 136]
Second: CC(C)c1cc(F)cc(C(C)C)c1NC(=O)N=S(N)(=O)c1ccc(C(C)(C)O)s1 (single isomer, unassigned) [Example 156]
The IC50 of the first is higher: 1 to 5 µM for the first, 0.2 to 1 µM for the second. The second is the more potent here.

First: CC(C)c1cc(OC(F)F)cc(C(C)C)c1NC(=O)N=S(N)(=O)c1ncc(C(C)(C)O)s1 (single isomer, unassigned) [Example 137]
Second: CC(C)c1cc(F)cc(C(C)C)c1NC(=O)N=S(N)(=O)c1ccc(C(C)(C)O)s1 (single isomer, unassigned) [Example 157]
The IC50 of the first is lower: 0.04 to 0.2 µM for the first, 5 to 30 µM for the second.

First: CC(C)(O)c1ccc(S(N)(=O)=NC(=O)Nc2c3c(c(Cl)c4c2CCC4)CCC3)c(F)c1 (single isomer, unassigned) [Example 142]
Second: CC(C)(O)c1cccc(S(N)(=O)=NC(=O)Nc2c3c(cc4c2CCC4)CCC3)c1 (single isomer, unassigned) [Example 150]
The IC50 of the first is lower: 0.04 to 0.2 µM for the first, 5 to 30 µM for the second.

First: CC(C)(O)c1ccc(S(N)(=O)=NC(=O)Nc2c3c(c(Cl)c4c2CCC4)CCC3)c(F)c1 (single isomer, unassigned) [Example 143]
Second: CC(C)(O)c1cccc(S(N)(=O)=NC(=O)Nc2c3c(cc4c2CCC4)CCC3)c1 (single isomer, unassigned) [Example 151]
The IC50 of the first is higher: 5 to 30 µM for the first, 0.2 to 1 µM for the second.
